# Test results as given in patent publication US20260374754A1, “N-((ISOQUINOLIN-6-YL)METHYL)-1H-PYRAZOLE-4-CARBOXAMIDE DERIVATIVES AS PLASMA KALLIKREIN INHIBITORS FOR THE TREATMENT OF HEREDITARY ANGIODEMA” (Takeda Pharmaceutical Company Limited, priority 2022, published 2026).
# Counter-ions that a name gives are not always drawn.
# Biological target: human activated kallikrein enzyme (Homo sapiens, UniProt P03952)
# Assay: Inhibition of human activated plasma kallikrein, fluorogenic PFR-AMC substrate, 500 pM enzyme format
# Assay type: biochemical
# Details: 500 pM activated kallikrein; 300 μM PFR-AMC; 30 min preincubation; 10 min room temperature; pH 7.5; read-out: Primary Dose Response Assay: Average EC50
# How it was run: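 Using fluorogenic PFR-AMC at 300 μM, cleavage by 500 pM human activated kallikrein ran 10 min at room temperature, read at 460 nm emission (380 nm excitation). Enzyme and compounds were first preincubated 30 min in 20 mM Tris pH 7.5, 150 mM NaCl, 1 mM EDTA, 0.1% PEG-400, 0.1% Triton X-100.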
# human activated kallikrein enzyme, sequence (P03952 391-638 limits assumed): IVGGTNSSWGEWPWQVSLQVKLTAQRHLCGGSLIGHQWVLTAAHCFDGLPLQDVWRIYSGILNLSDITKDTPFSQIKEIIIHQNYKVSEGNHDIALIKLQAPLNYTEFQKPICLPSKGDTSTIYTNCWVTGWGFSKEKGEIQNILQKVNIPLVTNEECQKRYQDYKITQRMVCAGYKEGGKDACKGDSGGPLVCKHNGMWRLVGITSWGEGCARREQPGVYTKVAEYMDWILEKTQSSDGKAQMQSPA
# human activated kallikrein enzyme, sequence (P03952 20-390 partner limits assumed): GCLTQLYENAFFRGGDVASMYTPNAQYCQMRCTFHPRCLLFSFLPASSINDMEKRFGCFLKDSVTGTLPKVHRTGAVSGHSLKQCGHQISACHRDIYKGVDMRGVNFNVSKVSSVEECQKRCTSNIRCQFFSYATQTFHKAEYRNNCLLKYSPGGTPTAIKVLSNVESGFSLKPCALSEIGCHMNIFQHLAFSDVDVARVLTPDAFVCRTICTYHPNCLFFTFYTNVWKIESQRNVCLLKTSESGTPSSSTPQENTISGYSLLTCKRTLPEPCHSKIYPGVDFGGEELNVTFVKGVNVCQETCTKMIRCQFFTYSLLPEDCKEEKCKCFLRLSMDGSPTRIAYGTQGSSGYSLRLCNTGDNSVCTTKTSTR
row,SMILES,EC50
1,"Cc1cc2c(N)nccc2c(C)c1CNC(=O)c1cnn(Cc2ccc3cccc(Br)c3n2)c1 [Example 159, N-((1-amino-5,7-dimethylisoquinolin-6-yl)methyl)-1-((8-bromoquinolin-2-yl)methyl)-1H-pyrazole-4-carboxamide]",0.01 to 0.1 µM
2,"Cc1cc2c(N)nccc2c(C)c1CNC(=O)c1cnn(Cc2ccccc2C(F)(F)F)c1 [Example 42, N-((1-amino-5,7-dimethylisoquinolin-6-yl)methyl)-1-(2-(trifluoromethyl)benzyl)-1H-pyrazole-4-carboxamide]",> 1 µM
3,"Cc1cc2c(N)nccc2c(C)c1CNc1cc2c(ccn2Cc2ccc3ncc(Cl)cc3c2)cn1 [Example 531, 6-(((1-((3-chloroquinolin-6-yl)methyl)-1H-pyrrolo[3,2-c]pyridin-6-yl)amino)methyl)-5,7-dimethylisoquinolin-1-amine]",0.01 to 0.1 µM
4,"Cc1cc2c(N)nccc2c(C)c1CNc1cc(NCc2cc(C)c(OCc3nccs3)c(C)c2)ncn1 [Example 355, N^4-((1-amino-5,7-dimethylisoquinolin-6-yl)methyl)-N^6-(3,5-dimethyl-4-(thiazol-2-ylmethoxy)benzyl)pyrimidine-4,6-diamine, formic acid salt]",0.001 to 0.01 µM
5,"CC(=O)Nc1nccc2c(C)c(CNC(=O)c3cnn(Cc4cn5cc(C)ccc5n4)c3)c(C)cc12 [Example 8, N-((1-acetamido-5,7-dimethylisoquinolin-6-yl)methyl)-1-((6-methylimidazo[1,2-a]pyridin-2-yl)methyl)-1H-pyrazole-4-carboxamide]",0.01 to 0.1 µM
6,"COc1c(F)cccc1Cc1ccc(Cn2cc(C(=O)NCc3c(C)cc4c(N)nccc4c3C)cn2)cc1 [Example 116, N-((1-amino-5,7-dimethylisoquinolin-6-yl)methyl)-1-(4-(3-fluoro-2-methoxybenzyl)benzyl)-1H-pyrazole-4-carboxamide]",0.001 to 0.01 µM
7,"CCOC(=O)Nc1nccc2c(C)c(CNc3cc(N(Cc4ccc(Cn5ccccc5=O)cc4)C(=O)OCC)ncn3)c(C)cc12 [Example I-481, ethyl (6-(((1-((ethoxycarbonyl)amino)-5,7-dimethylisoquinolin-6-yl)methyl)amino)pyrimidin-4-yl)(4-((2-oxopyridin-1(2H)-yl)methyl)benzyl)carbamate]",> 1 µM
8,"Cc1cc2c(N)nccc2c(C)c1CNc1cc(NCc2ccc3c(-c4ccccn4)cccc3c2)ncn1 [Example 241, N4-((1-amino-5,7-dimethylisoquinolin-6-yl)methyl)-N6-((5-(pyridin-2-yl)naphthalen-2-yl)methyl)pyrimidine-4,6-diamine]",0.001 to 0.01 µM
9,"Cc1cc2c(N)nccc2c(C)c1CNc1ncnc2oc(Cc3ccc4ncc(Cl)cc4c3)nc12 [Example 538, N-((1-amino-5,7-dimethylisoquinolin-6-yl)methyl)-2-((3-chloroquinolin-6-yl)methyl)oxazolo[5,4-d]pyrimidin-7-amine]",0.01 to 0.1 µM
10,"Cc1cc2c(N)nccc2c(C)c1CNC(=O)c1cnn(Cc2cnc(-c3ccccc3)nc2)c1 [Example 195, N-((1-amino-5,7-dimethylisoquinolin-6-yl)methyl)-1-((2-phenylpyrimidin-5-yl)methyl)-1H-pyrazole-4-carboxamide]",0.001 to 0.01 µM
11,"Cc1cc2c(N)nccc2c(C)c1CNc1nccc(OCc2cn3cc(C4CC4)ccc3n2)n1 [Example 492, 6-(((4-((6-cyclopropylimidazo[1,2-a]pyridin-2-yl)methoxy)pyrimidin-2-yl)amino)methyl)-5,7-dimethylisoquinolin-1-amine]",0.001 to 0.01 µM
12,"Cc1cc2c(N)nccc2c(C)c1CNc1cnnc(OCc2ccc(CC(=O)N(C)C)cc2)c1 [Example I-462, 2-(4-(((5-(((1-amino-5,7-dimethylisoquinolin-6-yl)methyl)amino)pyridazin-3-yl)oxy)methyl)phenyl)-N,N-dimethylacetamide]",> 1 µM
13,"Cc1cc2c(N)nccc2c(C)c1CNC(=O)c1cnn(Cc2cc3cccc(C)c3nc2Cl)c1 [Example 73, N-((1-amino-5,7-dimethylisoquinolin-6-yl)methyl)-1-((2-chloro-8-methylquinolin-3-yl)methyl)-1H-pyrazole-4-carboxamide]",0.001 to 0.01 µM

# Next, values leading:
row,EC50,SMILES
1,0.001 to 0.01 µM,"Cc1cc2c(N)nccc2c(C)c1CNc1ccnc(OCc2cn3cc(C4CC4)ccc3n2)c1 [Example 279, 6-(((2-((6-cyclopropylimidazo[1,2-a]pyridin-2-yl)methoxy)pyridin-4-yl)amino)methyl)-5,7-dimethylisoquinolin-1-amine]"
2,0.001 to 0.01 µM,"Cc1cc2c(N)nccc2c(C)c1CNc1cc(OCc2ccc(CN3CCOCC3=O)cc2)ncn1 [Example 302, 4-(4-(((6-(((1-amino-5,7-dimethylisoquinolin-6-yl)methyl)amino)pyrimidin-4-yl)oxy)methyl)benzyl)morpholin-3-one, trifluoroacetic acid salt]"
3,< 0.001 µM,"Cc1cc2c(N)nccc2c(C)c1CNC(=O)c1cnn(Cc2ccc(CC(=O)N(C)C)c(Cl)c2)c1 [Example 151, N-((1-amino-5,7-dimethylisoquinolin-6-yl)methyl)-1-(3-chloro-4-(2-(dimethylamino)-2-oxoethyl)benzyl)-1H-pyrazole-4-carboxamide]"
4,< 0.001 µM,"CCc1cnc2ccc(Cn3cc(C(=O)NCc4c(C)cc5c(N)nccc5c4C)cn3)cc2c1 [Example 124, N-((1-amino-5,7-dimethylisoquinolin-6-yl)methyl)-1-((3-ethylquinolin-6-yl)methyl)-1H-pyrazole-4-carboxamide]"
5,< 0.001 µM,"COc1ccc2cc(Cn3cc(C(=O)NCc4c(C)cc5c(N)nccc5c4C)cn3)cnc2c1 [Example 111, N-((1-amino-5,7-dimethylisoquinolin-6-yl)methyl)-1-((7-methoxyquinolin-3-yl)methyl)-1H-pyrazole-4-carboxamide]"
6,< 0.001 µM,"Cc1ccc2cc(CNc3cc(NCc4c(C)cc5c(N)nccc5c4C)ncn3)ccc2n1 [Example 335, N^4-((1-amino-5,7-dimethylisoquinolin-6-yl)methyl)-N^6-((2-methylquinolin-6-yl)methyl)pyrimidine-4,6-diamine]"
7,< 0.001 µM,"Cc1cc2c(N)nccc2c(C)c1CNc1cc(NCc2ccc(OCC(=O)N(C)C)cc2)ncn1 [Example 377, 2-(4-(((6-(((1-amino-5,7-dimethylisoquinolin-6-yl)methyl)amino)pyrimidin-4-yl)amino)methyl)phenoxy)-N,N-dimethylacetamide]"
8,< 0.001 µM,"Cc1cc2c(N)nccc2c(C)c1CNC(=O)c1cnn(Cc2cc3cc(Cl)ccc3s2)c1 [Example 65, N-((1-amino-5,7-dimethylisoquinolin-6-yl)methyl)-1-((5-chlorobenzo[b]thiophen-2-yl)methyl)-1H-pyrazole-4-carboxamide]"
9,< 0.001 µM,"Cc1cc2c(N)nccc2c(C)c1CNc1cc(OCc2ccc(Cn3ccc(C4CC4)n3)cc2)cnn1 [Example 431, 6-(((5-((4-((3-cyclopropyl-1H-pyrazol-1-yl)methyl)benzyl)oxy)pyridazin-3-yl)amino)methyl)-5,7-dimethylisoquinolin-1-amine]"

# Same assay, conditions: Primary Dose Response Assay: Average EC50, 500 pM activated kallikrein; 300 μM PFR-AMC; 30 min preincubation; 10 min room temperature; pH 7.5
row,EC50,SMILES
1,< 0.001 µM,"Cc1cc2c(N)nccc2c(C)c1CNc1cc(NCc2ccc(CC(=O)N(C)C)cc2)ncn1 [Example 375, 2-(4-(((6-(((1-amino-5,7-dimethylisoquinolin-6-yl)methyl)amino)pyrimidin-4-yl)amino)methyl)phenyl)-N,N-dimethylacetamide]"
